Measured values taken from patent US5464739A, “Composition method for determining the presence of leukocyte cells, esterase or protease in a test sample” (Bayer Corporation, priority 1994, dated 1995).

What was measured:
[1] = target: T1, human leukocyte elastase (HLE) (Homo sapiens, UniProt P08246); assay: Dry phase test strip assay of chromogenic substrates for HLE (reflectance at 557 nm, K/S); format: biochemical; conditions: for K/S: response at 120 seconds; for Change in K/S: 120 seconds; for Response to HLE / hydrolysis by HLE, in words: test strip, NDNSA
T1 sequence (P08246 30-247): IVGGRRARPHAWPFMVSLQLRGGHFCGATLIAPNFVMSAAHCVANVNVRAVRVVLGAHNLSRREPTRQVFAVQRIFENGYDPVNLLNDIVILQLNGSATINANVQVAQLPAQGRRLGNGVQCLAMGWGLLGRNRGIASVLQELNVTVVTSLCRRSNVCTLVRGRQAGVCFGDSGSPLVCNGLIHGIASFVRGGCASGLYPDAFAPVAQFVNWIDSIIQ
Protocol: In accordance with the method of the present invention, a test device was prepared which was sensitive to the presence of leukocyte esterase. An aqueous solution including 0.8M borate-sodium hydroxide buffer (pH 8.8) and 1% by weight of polyvinylpyrrolidone (PVP K-60 available from ISP Corp., Wayne, N.J.) first was prepared. A 4 inch wide strip of WHATMAN 3MM filter paper, available commercially from Whatman, Ltd., Maidenhead, Kent, U.K., then was impregnated with the aqueous solution. The impregnated filter paper strip next was dried in an Air Foil paper dryer, available from Thermoelectron, Kaukauna, Wis., at 79° C. to 121° C. for about 5 to 6 minutes.
The dried, impregnated filter paper strip then was impregnated a second time by immersion into an acetone solution containing 1.1 mM of a lactate ester of structural formula […], 0.7 mM 4-diazo-3-hydroxy-7-nitro-1-naphthylsulfonate (i.e., the compound of structural formula (XX), also named 6-nitro-1,2-naphthoquinone diazide), 1.5% (v/v) 1-decanol and 3% (v/v) dimethylsulfoxide. After the second impregnation, the filter paper strip was dried at 60° C. for about 5 to 6 minutes to provide an off-white filter paper strip. The dried, twice-impregnated filter paper pad is secured to an opaque or transparent hydrophobic plastic handle with double-sided adhesive tape. The dried and twice-impregnated filter paper strip was next cut to an appropriate size for a test strip assay, such as a pad having dimensions of about 0.2 in (inch) (0.5 cm) by about 0.2 in (0.5 cm).
Individual test strips each incorporating one chromogenic lactate ester having a structural formula (X) through (XIV) and a diazonium salt coupling agent were quickly immersed into standardized solutions containing 0, 19 or 48 ng/mL HLE, then removed. Approximately two minutes after contacting a standardized HLE solution, the reflectance of the test pad of the test strip was measured at 557 nm (nanometers) on a CLINITEK® 10 clinical reflectance meter, available from Miles, Inc., Elkhart, Ind.
The reflectance, R, as taken from the reflectance scale of zero to one, was incorporated into the Kubelka-Munk function:
wherein K is the absorption coefficient, S is the scattering coefficient and R is reflectance. The reflectance values determined at 557 nm were used to calculate the K/S values. The K/S values are proportional to test strip color, therefore the greater the K/S value, the greater the degree and intensity of the color transition of the test strip and the greater the concentration of HLE in the test strip.
Dry phase test strips incorporating the lactate ester of structural formula (X), and prepared as discussed above, were compared to dry phase test strips incorporating the corresponding alanine derivative (I) for an ability to detect HLE in urine. A comparison also was made between the diazonium salt coupling agents DNSA (XX) and NDNSA (XXI). The test strips were otherwise identical. The results tabulated below were obtained after quickly immersing the individual reagent strips into standardized HLE solutions. Two minutes after immersion, the test strips were examined for a chromogenic response as described above.

[2] = target: T1, human leukocyte elastase (HLE); assay: as above; format: biochemical; conditions: for K/S: response at 120 seconds; for Change in K/S: between 0 and 19 ng/mL HLE; for Change in K/S / Response between 200 and 500 ng/mL HLE, in words: 120 seconds; for ΔK/S (557 mm) at 120 seconds: NDNSA (XXI); for Response between 200 and 500 ng/mL HLE, in words: test strip, NDNSA
[3] = HLE 0 ng/mL, diazonium salt NDNSA, 557 nm
[4] = HLE 19 ng/mL, diazonium salt NDNSA, 557 nm
[5] = HLE 48 ng/mL, diazonium salt NDNSA, 557 nm
[6] = between 0 and 19 ng/mL HLE, diazonium salt NDNSA
[7] = between 0 and 48 ng/mL HLE, diazonium salt NDNSA
[8] = Example 10, HLE 0 ng/mL, diazonium salt not given (as in Example 6)
[9] = Example 10, HLE 19 ng/mL, diazonium salt not given (as in Example 6)
[10] = Example 10, diazonium salt not stated
[11] = change between 0 and 5 ng/mL HLE
[12] = change between 0 and 10 ng/mL HLE
[13] = change between 0 and 20 ng/mL HLE
[14] = change between 0 and 100 ng/mL HLE
[15] = change between 0 and 200 ng/mL HLE
[16] = change between 0 and 500 ng/mL HLE

Row | SMILES | K/S [1, 3] | K/S [1, 4] | K/S [1, 5] | Change in K/S [1, 6] | Change in K/S [1, 7] | also measured
1 | COC(=O)CCS(=O)(=O)N[C@@H](C)C(=O)Oc1c[nH]c(-c2ccccc2)c1 | 0.074 | 0.435 | 0.976 | 0.361 | 0.902 | 
2 | C[C@H](NS(=O)(=O)c1cccs1)C(=O)Oc1c[nH]c(-c2ccccc2)c1 [2-Thiophene-SO2 --R--OPP, R = Alanine] |  |  |  |  |  | K/S [1, 8]: 0.050; K/S [2, 9]: 0.224; Change in K/S [2, 10]: 0.174
3 | C[C@H](OS(=O)(=O)c1cccs1)C(=O)Oc1c[nH]c(-c2ccccc2)c1 [2-Thiophene-SO2-(L)-Lac-OPP] |  |  |  |  |  | K/S [1, 8]: 0.03; K/S [2, 9]: 0.385; Change in K/S [2, 10]: 0.332
4 | COC(=O)CCS(=O)(=O)O[C@@H](C)C(=O)Oc1c[nH]c(-c2ccccc2)c1 [MeOSucc--SO2 -(L)-Lac--OPP] | 0.177 | 0.514 | 0.916 | 0.337 | 0.739 | Response to HLE / hydrolysis by HLE, in words [1]: sufficient to assay for HLE
5 | C[C@H](NC(=O)c1ccccc1)C(=O)Oc1c[nH]c(-c2ccccc2)c1 [Ph--CO--R--OPP, R = Alanine] | 0.038 | 0.039 |  | 0.001 |  | 
6 | C[C@H](OC(=O)c1ccccc1)C(=O)Oc1c[nH]c(-c2ccccc2)c1 [Ph--CO--R--OPP, R = Lactate (XI), PhCO-(L)-Lac--OPP] | 0.041 | 0.106 |  | 0.065 |  | 
7 | Cc1ccc(S(=O)(=O)O[C@@H](C)C(=O)Oc2c[nH]c(-c3ccccc3)c2)cc1 [Tosyl-(L)--Lac--OPP, 3-(O-tosyl-(L)-lactoyl)-5-phenylpyrrole] | 0.046 | 0.348 |  | 0.302 |  | Response to HLE / hydrolysis by HLE, in words [1]: readily hydrolyzed by the enzyme HLE

Continued, in another order:

Row | K/S [1, 3] | K/S [1, 4] | K/S [1, 5] | Change in K/S [1, 6] | Change in K/S [1, 7] | SMILES | also measured
8 | 0.044 | 0.308 |  | 0.264 |  | Cc1ccc(S(=O)(=O)N[C@@H](C)C(=O)Oc2c[nH]c(-c3ccccc3)c2)cc1 [Tosyl--Ala--OPP, 3-hydroxy-5-phenyl-pyrrole-N-tosyl-L-alanine ester] | K/S ([2]; HLE 0 ng/mL, diazonium salt DNSA, 557 nm): 0.021; K/S ([2]; HLE 19 ng/mL, diazonium salt DNSA, 557 nm): 0.146; Change in K/S ([2]; diazonium salt DNSA): 0.125
9 | 0.050 | 0.363 | 0.881 | 0.313 | 0.831 | CCCS(=O)(=O)N[C@@H](C)C(=O)Oc1c[nH]c(-c2ccccc2)c1 [n-Pr--SO2 --Ala--OPP] | ΔK/S (557 mm) at 120 seconds [2, 11]: 0.065; ΔK/S (557 mm) at 120 seconds [2, 12]: 0.165; ΔK/S (557 mm) at 120 seconds [2, 13]: 0.353; ΔK/S (557 mm) at 120 seconds [2, 14]: 1.474; ΔK/S (557 mm) at 120 seconds [2, 15]: 1.797; ΔK/S (557 mm) at 120 seconds [2, 16]: 1.628; Response between 200 and 500 ng/mL HLE, in words [2]: no difference in response
10 | 0.100 | 0.498 | 1.049 | 0.398 | 0.949 | CCCS(=O)(=O)O[C@@H](C)C(=O)Oc1c[nH]c(-c2ccccc2)c1 [n-Pr--SO2 --Lac--OPP, nPr--SO2 -(L)-Lac--OPP] | ΔK/S (557 mm) at 120 seconds [2, 11]: 0.108; ΔK/S (557 mm) at 120 seconds [2, 12]: 0.257; ΔK/S (557 mm) at 120 seconds [2, 13]: 0.533; ΔK/S (557 mm) at 120 seconds [2, 14]: 1.462; ΔK/S (557 mm) at 120 seconds [2, 15]: 1.693; ΔK/S (557 mm) at 120 seconds [2, 16]: 1.915; Response between 200 and 500 ng/mL HLE, in words [2]: continues to increase
